From patent EP3171885B1, “PEPTIDE HYDROLYSATE OF SNAILS, PEPTIDE FRACTIONS, PRODUCTION METHOD, USE AND COMPOSITIONS FOR INHIBITING THE ANGIOTENSIN CONVERTING ENZYME” (Drevet, Pascal, priority 2014, dated 2016) come the findings set out here.

In this assay the target is enzyme de conversion de l'angiotensine (ECA) (Homo sapiens, UniProt P12821). As to the kind of experiment: biochemical. Here is the method:
Brièvement, cette méthode repose sur l'hydrolyse du substrat Hippuryl-L-Histidyl-L-Leucine (HHL) par l'ECA pour produire de l'acide hippurique (HA) et de l'Histydil-Leucine. Après incubation à 37°C pendant 30 minutes dans du tampon borate de sodium pH 8,3, la réaction est arrêtée par addition de HCI. La séparation du substrat HHL et du produit HA est réalisé par chromatographie liquide haute pression en phase inversée (RP-HPLC) sur une colonne C18 (Kinetex). L'élution se fait par un mélange d'eau (75% v/v) et d'acétonitrile (25% V/V).
La comparaison entre la concentration de HA produite pour chaque concentration d'échantillon avec celle obtenue sans addition de peptide permet la détermination de l'IC50.
A titre de témoin positif, le captopril est également testé en parallèle de l'hydrolysat, des fractions et des peptides. Le témoin négatif est le substrat HHL seul, sans ECA, dilué dans du tampon borate pH 8,3. L'échantillon est le peptide, la fraction ou l'hydrolysat total à tester.
Le pourcentage d'inhibition de l'ECA est calculé selon la formule suivante : Pourcentage d'inhibition ECA (%) = (ASCHA ([…])−ASCHA (Echantillon))/(ASCHA ([…])−ASCHA (HHL)) × 100 [formula]

Setting [1] is: substrate HHL 5 mM, 37°C, 30 minutes, sodium borate buffer pH 8,3, detection at 228 nm, read-out: IC50 (converted).

Like-named read-outs stand apart in the source and are kept apart here. Where a SMILES comes first, the peptide text is derived from it.

Sequence of enzyme de conversion de l'angiotensine (ECA) (P12821 30-1306): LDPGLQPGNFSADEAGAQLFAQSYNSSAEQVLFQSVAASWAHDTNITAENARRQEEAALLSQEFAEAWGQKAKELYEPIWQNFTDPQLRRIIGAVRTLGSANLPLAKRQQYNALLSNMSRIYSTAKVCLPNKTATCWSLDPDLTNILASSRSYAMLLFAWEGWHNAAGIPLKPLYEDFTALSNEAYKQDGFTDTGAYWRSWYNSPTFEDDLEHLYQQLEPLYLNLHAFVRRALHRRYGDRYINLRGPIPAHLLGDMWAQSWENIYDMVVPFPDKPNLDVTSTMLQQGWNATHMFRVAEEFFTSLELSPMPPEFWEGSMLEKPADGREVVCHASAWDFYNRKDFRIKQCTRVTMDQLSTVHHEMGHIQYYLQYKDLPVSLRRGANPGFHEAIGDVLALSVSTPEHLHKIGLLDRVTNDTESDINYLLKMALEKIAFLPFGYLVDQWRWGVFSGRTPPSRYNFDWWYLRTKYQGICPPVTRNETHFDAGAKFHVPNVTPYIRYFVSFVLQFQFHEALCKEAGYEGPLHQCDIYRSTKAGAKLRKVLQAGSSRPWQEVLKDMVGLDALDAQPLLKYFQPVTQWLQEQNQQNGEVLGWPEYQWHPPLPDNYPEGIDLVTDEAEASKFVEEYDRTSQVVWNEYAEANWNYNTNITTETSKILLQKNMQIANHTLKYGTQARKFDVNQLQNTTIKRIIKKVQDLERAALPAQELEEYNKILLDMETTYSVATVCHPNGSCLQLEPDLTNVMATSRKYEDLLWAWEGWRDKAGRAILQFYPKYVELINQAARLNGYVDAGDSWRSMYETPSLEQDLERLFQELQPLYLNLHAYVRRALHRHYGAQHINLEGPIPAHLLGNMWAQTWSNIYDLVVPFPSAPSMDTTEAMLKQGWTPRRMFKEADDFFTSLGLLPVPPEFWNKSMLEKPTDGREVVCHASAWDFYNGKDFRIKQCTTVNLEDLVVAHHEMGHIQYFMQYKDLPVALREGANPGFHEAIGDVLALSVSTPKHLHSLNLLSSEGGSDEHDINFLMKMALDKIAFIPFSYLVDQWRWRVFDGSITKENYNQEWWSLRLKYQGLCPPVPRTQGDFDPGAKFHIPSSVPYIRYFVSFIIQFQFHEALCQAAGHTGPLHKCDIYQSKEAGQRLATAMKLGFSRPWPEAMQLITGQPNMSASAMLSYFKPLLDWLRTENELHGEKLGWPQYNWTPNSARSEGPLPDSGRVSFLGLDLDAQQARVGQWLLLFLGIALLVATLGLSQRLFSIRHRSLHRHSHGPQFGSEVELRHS

As a reminder, the IC50 is the concentration that gives 50% inhibition. In the case of `N[C@@H](CO)C(=O)N[C@@H](Cc1ccccc1)C(=O)O` [SF, Serine-Phénylalanine], the half-maximal inhibitory concentration (IC50) was 516 µM.

`N[C@@H](CC(=O)O)C(=O)N[C@@H](Cc1ccccc1)C(=O)O` [DF, Acide Aspartique -Phénylalanine] (H-Asp-Phe-OH): under setting [1], the IC50 is 1280 µM.

Consider `CC(C)[C@H](N)C(=O)N[C@@H](Cc1ccc(O)cc1)C(=O)O` [VY, Valine-Tyrosine] (H-Val-Tyr-OH), for which, under setting [1], the half-inhibitory concentration (IC50) was 40.3 µM.
